Data set [1] addresses cAMP-dependent protein kinase (PKA) (Homo sapiens, UniProt P22694+P17612+P22612). Nature of the data set: Inhibition of PKA. The format is protein assay.
The target of data set [2] is Glycogen synthase kinase-3 beta (Homo sapiens, UniProt P49841). As to the kind of experiment: Inhibition of GSK3-beta.
Data set [3] is described as follows: Bioavailability in rat. The format is ADME, organism-based. The note with it: in vivo.
Data set [4] in a line: Inhibition of CDK.
Data set [5] is described as follows: Dissociation constant, pKa of the compound. In kind it is physicochemical.
Data set [6] addresses T1, Serine/threonine-protein kinase Sgk1 (Homo sapiens, UniProt O00141).
T1 sequence (O00141 whole entry): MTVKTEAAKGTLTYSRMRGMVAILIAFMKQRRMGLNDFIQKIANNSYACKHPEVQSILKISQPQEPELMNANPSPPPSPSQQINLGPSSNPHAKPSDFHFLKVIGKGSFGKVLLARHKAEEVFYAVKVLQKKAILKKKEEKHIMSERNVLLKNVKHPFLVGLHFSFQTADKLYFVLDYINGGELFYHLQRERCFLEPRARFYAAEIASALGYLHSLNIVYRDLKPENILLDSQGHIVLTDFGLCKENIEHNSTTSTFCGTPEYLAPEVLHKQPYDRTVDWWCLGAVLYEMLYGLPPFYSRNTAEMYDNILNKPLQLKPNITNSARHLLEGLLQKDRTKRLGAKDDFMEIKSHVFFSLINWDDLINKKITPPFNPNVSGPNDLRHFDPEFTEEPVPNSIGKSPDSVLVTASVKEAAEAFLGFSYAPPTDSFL
As to the kind of experiment: Inhibition of SGK.

Data set [7] in a line: Volume of distribution in rat. In kind it is ADME, organism-based. The note with it: in vivo, read-out: Vdss.
For data set [8], the target named is T2, Serine/threonine-protein kinase Chk1 (Homo sapiens, UniProt O14757).
T2 sequence (O14757 whole entry): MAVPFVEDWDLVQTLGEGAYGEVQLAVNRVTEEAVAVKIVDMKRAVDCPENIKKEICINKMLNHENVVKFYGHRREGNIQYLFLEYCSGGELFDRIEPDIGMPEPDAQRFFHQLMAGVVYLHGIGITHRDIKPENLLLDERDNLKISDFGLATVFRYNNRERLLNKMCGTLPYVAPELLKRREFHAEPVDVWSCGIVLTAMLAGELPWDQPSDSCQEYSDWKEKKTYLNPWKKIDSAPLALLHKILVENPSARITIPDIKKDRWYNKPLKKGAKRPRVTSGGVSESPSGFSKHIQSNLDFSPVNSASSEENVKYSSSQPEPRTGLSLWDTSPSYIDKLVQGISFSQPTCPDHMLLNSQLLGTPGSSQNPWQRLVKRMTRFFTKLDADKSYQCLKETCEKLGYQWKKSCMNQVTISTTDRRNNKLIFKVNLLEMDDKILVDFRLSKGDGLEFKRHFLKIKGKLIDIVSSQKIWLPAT
Nature of the data set: Inhibition of CHK1.

Data set [9] addresses c-Jun N-terminal kinase, JNK (Homo sapiens, UniProt P45983+P53779+P45984). Nature of the data set: Inhibition of JNK. The format is protein assay.
In data set [10] the target is Rho-associated protein kinase 2 (Homo sapiens, UniProt O75116). As to the kind of experiment: Inhibition of ROCK2.
Sequence of Rho-associated protein kinase 2 (O75116 whole entry): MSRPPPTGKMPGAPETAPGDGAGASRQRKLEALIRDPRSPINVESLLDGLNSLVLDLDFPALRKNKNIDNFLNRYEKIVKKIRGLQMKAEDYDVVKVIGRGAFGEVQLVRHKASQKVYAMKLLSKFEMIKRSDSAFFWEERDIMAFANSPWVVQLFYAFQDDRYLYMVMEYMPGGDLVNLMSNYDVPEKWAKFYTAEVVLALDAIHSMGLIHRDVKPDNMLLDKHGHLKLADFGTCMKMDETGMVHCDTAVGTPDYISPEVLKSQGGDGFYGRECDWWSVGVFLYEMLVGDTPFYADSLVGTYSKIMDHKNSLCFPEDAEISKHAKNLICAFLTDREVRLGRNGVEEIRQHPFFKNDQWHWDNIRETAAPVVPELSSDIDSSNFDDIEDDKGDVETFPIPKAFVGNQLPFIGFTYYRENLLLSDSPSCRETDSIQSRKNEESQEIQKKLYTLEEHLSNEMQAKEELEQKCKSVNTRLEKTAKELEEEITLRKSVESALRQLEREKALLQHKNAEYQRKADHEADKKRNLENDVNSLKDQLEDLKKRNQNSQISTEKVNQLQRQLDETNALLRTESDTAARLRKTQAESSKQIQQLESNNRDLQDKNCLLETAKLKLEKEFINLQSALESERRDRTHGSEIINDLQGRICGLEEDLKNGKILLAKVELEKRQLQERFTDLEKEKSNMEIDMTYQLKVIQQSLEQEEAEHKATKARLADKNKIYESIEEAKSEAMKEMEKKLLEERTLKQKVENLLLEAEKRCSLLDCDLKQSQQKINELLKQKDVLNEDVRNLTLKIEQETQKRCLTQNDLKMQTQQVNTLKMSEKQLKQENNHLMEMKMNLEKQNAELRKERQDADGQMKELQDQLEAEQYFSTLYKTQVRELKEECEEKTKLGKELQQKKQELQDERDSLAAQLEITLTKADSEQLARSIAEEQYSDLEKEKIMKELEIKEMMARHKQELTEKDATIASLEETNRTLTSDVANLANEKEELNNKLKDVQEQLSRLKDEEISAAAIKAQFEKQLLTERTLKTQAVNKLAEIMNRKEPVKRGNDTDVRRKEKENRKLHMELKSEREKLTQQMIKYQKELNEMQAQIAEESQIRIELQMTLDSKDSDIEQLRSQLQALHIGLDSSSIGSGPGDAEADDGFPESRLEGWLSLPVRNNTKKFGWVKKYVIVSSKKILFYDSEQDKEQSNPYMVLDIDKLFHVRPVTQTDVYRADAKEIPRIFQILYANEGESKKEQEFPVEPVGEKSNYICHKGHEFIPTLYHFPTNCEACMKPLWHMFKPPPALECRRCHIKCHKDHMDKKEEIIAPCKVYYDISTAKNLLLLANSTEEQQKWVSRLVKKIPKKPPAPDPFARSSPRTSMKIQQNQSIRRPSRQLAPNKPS
Data set [11] addresses Mitogen-activated protein kinase 1 (Homo sapiens, UniProt P28482). As to the kind of experiment: Inhibition of MAPK.
Data set [12] concerns the target Tyrosine-protein kinase Lck (Homo sapiens, UniProt P06239).
The target of data set [13] is Vascular endothelial growth factor receptor 2 (Homo sapiens, UniProt P35968).
Sequence of Vascular endothelial growth factor receptor 2 (P35968 whole entry): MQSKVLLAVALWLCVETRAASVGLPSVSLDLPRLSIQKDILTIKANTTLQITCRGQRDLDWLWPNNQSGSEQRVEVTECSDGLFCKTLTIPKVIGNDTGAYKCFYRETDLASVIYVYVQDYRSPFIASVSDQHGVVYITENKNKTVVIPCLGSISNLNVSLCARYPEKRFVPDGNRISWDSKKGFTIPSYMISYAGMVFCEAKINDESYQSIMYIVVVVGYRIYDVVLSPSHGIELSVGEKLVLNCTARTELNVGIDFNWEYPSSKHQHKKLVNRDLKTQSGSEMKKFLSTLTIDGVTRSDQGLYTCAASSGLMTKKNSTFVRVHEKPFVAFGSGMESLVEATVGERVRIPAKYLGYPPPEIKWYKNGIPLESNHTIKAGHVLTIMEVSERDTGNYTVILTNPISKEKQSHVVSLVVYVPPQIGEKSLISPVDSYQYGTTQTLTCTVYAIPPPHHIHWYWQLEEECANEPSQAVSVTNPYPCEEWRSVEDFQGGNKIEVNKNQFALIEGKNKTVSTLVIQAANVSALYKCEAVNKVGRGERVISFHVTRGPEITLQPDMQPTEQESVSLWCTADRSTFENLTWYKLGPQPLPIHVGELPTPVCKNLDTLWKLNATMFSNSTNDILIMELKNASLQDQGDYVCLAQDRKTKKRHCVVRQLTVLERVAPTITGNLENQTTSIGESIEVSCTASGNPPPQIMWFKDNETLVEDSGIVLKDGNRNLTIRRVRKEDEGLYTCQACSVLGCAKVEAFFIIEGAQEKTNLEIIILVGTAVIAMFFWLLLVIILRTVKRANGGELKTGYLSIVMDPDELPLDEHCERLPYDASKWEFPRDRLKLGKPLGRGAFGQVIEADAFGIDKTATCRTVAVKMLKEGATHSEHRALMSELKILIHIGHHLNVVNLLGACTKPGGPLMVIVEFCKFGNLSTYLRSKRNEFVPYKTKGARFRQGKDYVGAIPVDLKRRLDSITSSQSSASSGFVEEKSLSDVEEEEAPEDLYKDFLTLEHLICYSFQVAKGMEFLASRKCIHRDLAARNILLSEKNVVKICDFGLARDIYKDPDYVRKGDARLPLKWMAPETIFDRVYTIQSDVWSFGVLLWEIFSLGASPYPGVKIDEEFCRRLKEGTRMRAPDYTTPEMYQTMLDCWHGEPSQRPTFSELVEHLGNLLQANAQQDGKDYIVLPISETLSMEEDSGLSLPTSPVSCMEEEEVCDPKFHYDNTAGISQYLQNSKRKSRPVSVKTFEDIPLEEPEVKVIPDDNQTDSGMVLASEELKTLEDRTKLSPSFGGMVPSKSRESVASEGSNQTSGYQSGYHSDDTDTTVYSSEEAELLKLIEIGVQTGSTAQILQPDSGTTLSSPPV
Data set [14] deals with Proto-oncogene tyrosine-protein kinase Src (Homo sapiens, UniProt P12931). As to the kind of experiment: Inhibition of Src.
Sequence of Proto-oncogene tyrosine-protein kinase Src (P12931 2-536 limits assumed): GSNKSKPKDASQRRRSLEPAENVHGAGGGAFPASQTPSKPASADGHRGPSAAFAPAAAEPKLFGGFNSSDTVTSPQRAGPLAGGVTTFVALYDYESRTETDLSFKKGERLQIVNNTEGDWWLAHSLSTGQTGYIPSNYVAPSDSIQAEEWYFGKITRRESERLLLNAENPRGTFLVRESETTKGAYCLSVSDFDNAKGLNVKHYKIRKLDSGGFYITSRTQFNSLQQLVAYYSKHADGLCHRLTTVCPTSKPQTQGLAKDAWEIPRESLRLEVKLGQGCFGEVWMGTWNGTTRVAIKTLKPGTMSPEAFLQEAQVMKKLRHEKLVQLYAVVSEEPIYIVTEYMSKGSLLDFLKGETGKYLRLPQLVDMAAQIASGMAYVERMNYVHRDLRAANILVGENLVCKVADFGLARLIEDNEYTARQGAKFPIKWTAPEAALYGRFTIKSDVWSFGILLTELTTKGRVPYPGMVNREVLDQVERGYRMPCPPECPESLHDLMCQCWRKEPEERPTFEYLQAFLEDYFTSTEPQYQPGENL
The target in the next data set is MAP kinase p38 (Homo sapiens, UniProt O15264+Q15759+Q16539+P53778).
Data set [15] is described as follows: Clearance in rat. The note with it: in vivo. In kind it is ADME, organism-based.
Data set [16] has as its target AMP-activated protein kinase, AMPK. As to the kind of experiment: Inhibition of AMPK. The format is protein-complex assay.

Sequence of Tyrosine-protein kinase Lck (P06239 whole entry): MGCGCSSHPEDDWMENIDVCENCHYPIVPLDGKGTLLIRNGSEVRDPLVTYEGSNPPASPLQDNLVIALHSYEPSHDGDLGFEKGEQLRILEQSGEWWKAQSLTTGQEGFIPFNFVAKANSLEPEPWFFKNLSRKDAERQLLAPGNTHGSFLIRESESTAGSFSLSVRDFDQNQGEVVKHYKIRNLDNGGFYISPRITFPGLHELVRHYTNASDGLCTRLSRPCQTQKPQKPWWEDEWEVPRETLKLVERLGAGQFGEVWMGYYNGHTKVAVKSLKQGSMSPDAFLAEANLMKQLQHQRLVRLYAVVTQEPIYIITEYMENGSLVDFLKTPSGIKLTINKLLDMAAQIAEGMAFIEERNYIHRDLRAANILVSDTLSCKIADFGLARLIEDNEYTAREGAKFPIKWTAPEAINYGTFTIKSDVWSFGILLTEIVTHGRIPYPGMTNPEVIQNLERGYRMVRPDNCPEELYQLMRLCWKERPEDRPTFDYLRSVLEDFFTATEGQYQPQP
Sequence of Glycogen synthase kinase-3 beta (P49841 whole entry): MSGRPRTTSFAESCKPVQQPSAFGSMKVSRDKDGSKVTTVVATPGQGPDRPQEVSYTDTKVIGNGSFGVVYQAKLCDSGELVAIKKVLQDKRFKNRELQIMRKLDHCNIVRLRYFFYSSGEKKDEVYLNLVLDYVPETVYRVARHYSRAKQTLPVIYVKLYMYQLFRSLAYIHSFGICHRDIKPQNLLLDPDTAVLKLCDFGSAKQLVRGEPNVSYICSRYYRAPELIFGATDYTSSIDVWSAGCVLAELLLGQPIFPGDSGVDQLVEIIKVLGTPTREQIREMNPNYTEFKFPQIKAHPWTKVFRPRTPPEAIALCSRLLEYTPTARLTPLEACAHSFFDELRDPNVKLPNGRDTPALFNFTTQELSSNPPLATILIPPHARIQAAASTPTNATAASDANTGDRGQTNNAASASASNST
Sequence of Mitogen-activated protein kinase 1 (P28482 whole entry): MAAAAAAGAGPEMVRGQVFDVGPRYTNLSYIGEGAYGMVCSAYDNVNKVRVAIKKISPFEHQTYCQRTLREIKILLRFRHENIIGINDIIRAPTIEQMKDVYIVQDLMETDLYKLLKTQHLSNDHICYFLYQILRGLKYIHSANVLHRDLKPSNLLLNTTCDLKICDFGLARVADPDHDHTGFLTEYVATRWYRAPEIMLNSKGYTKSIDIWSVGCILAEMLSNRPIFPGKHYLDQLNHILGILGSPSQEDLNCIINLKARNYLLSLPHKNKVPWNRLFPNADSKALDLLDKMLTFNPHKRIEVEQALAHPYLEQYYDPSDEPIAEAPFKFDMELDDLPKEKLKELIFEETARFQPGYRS

Consider `COCCN1CC(C(N)=O)(N(C)Cc2cc3c(Nc4cccc(Cl)c4F)ncnc3cc2OC)C1`, for which the IC50 in [1], in data set [2], in data set [4], in data set [6], in data set [8] and in [9] was > 10 µM each time. The IC50 (in [10]; in [11]; in [12]; in [13]; in data set [14]; against MAP kinase p38) was > 10 µM each time. Also, the IC50 in data set [16] was > 10 µM. Besides, the bioavailability in data set [3] is < 50%. Further, the pKa in [5] came to 7.1. Besides, in data set [7], the Vd was 4.2 L/kg. Besides, the clearance in [15] stood at 35 mL/min/kg.
With `COc1cc2ncnc(Nc3cccc(Cl)c3F)c2cc1CN(C)C1(C(N)=O)CCN(C)CC1`, the IC50 in data set [1], in data set [2], in data set [4], in data set [6], in data set [8] and in data set [9] was > 10 µM in each case. For the same molecule, the IC50 (in [10]; in data set [11]; in data set [12]; in data set [13]; in data set [14]; at MAP kinase p38) was > 10 µM each time. In addition, the IC50 in [16] was > 10 µM. In addition, the bioavailability in data set [3] is < 50%. The pKa in data set [5] was 8.3. The Vd in [7] came to 7.5 L/kg. The same molecule showed a clearance in data set [15] of 55 mL/min/kg.
With `COc1cc2ncnc(Nc3cccc(Cl)c3F)c2cc1CN1CCC[C@H]1CC(N)=O`, the IC50 in [1], in data set [2], in data set [4], in data set [6], in data set [8] and in [9] was > 10 µM in each case. In addition, the IC50 (in data set [10]; in data set [11]; in data set [12]; in [13]; in data set [14]; against MAP kinase p38) was > 10 µM each time. The IC50 in data set [16] is > 10 µM.
Regarding `COc1cc2ncnc(Nc3cccc(Cl)c3F)c2cc1CN(C)[C@@H](CN(C)C)C(N)=O`, the IC50 in data set [1], in data set [2], in data set [4], in data set [6], in [8] and in [9] was > 10 µM in each case. Besides, the concentration for half-maximal inhibition (IC50) (in data set [10]; in data set [11]; in [12]; in [13]; in data set [14]; against MAP kinase p38) was > 10 µM in each case. Further, the 50% inhibitory concentration (IC50) in data set [16] is > 10 µM.
Consider `COc1cc2ncnc(Nc3cccc(Cl)c3F)c2cc1CN(C)C1(C(N)=O)CCN(C(C)C)CC1`, for which the IC50 in [2], in data set [6], in [8], in [9], in data set [10] and in [11] was > 10 µM in each case. Besides, the half-maximal inhibitory concentration (IC50) in [13], in [14] and in [16] was > 10 µM in each case. In data set [3], the bioavailability was < 50%. Moreover, the pKa in [5] came out at 9.1. The Vd in data set [7] was determined as 4.9 L/kg. This molecule also yielded a clearance in data set [15] of 114 mL/min/kg.
For the molecule `COc1cc2ncnc(Nc3ccc(F)c(Cl)c3)c2cc1CN1CCC[C@H]1C(N)=O`, the IC50 in data set [1], in [2], in data set [4], in data set [6], in [8] and in [9] was > 10 µM each time. Moreover, the IC50 (in [10]; in [11]; in data set [13]; in data set [14]; on MAP kinase p38; in [16]) was > 10 µM throughout.
Consider `COCC[C@@H](C(N)=O)N(C)Cc1cc2c(Nc3cccc(Cl)c3F)ncnc2cc1OC`, for which the IC50 in [1], in data set [2], in data set [4], in data set [6], in [8] and in data set [9] was > 10 µM in each case. Moreover, the IC50 (in [10]; in data set [11]; in data set [12]; in [13]; in data set [14]; against MAP kinase p38) was > 10 µM in each case. In addition, the IC50 in data set [16] is > 10 µM.
As to `CNC(=O)[C@@H](C)N(C)Cc1cc2c(Nc3cccc(Cl)c3F)ncnc2cc1OC`, the half-inhibitory concentration (IC50) in data set [1], in data set [2], in [4], in data set [6], in data set [8] and in data set [9] was > 10 µM in each case. Further, the IC50 (in [10]; in [11]; in [12]; in data set [13]; in data set [14]; against MAP kinase p38) was > 10 µM throughout. In addition, in [16], the IC50 was > 10 µM.
`COc1cc2ncnc(Nc3cccc(Cl)c3F)c2cc1CN(C)C1(C(N)=O)CN(C)C1`: the IC50 in data set [1], in data set [2], in data set [4], in [6], in [8] and in data set [9] was > 10 µM in each case. The IC50 (in [10]; in data set [11]; in data set [12]; in data set [13]; in data set [14]; against MAP kinase p38) was > 10 µM in each case. Moreover, in [16], the IC50 is > 10 µM. Besides, the bioavailability in data set [3] is < 50%. The same molecule yielded a pKa in data set [5] of 7.9. The Vd in data set [7] amounted to 9.4 L/kg. The molecule also registered a clearance in data set [15] of 55 mL/min/kg.
Turning to `COc1cc2ncnc(Nc3cccc(Cl)c3F)c2cc1CN(C)C1(C(N)=O)CN(C(C)C)C1`, the IC50 in data set [1], in [2], in data set [6], in data set [8], in [9] and in data set [10] was > 10 µM each time. Further, the IC50 in [11], in data set [12], in data set [13], in data set [14] and in data set [16] was > 10 µM throughout. Further, the bioavailability in [3] was < 50%. The pKa in data set [5] came to 7.8. In addition, the Vd in data set [7] was found to be 7.2 L/kg. For the same molecule, the clearance in data set [15] was found to be 61 mL/min/kg.
`COc1cc2ncnc(Nc3ccc(F)c(Cl)c3)c2cc1CN1CCC[C@@H]1C(N)=O`: the IC50 in [1], in [2], in data set [4], in data set [6], in data set [8] and in [9] was > 10 µM throughout. Also, the IC50 (in [10]; in data set [11]; in [13]; in [14]; against MAP kinase p38; in data set [16]) was > 10 µM throughout.
Take `COc1cc2ncnc(Nc3cccc(Cl)c3F)c2cc1CN1CCCC[C@@H]1C(N)=O`: the 50% inhibitory concentration (IC50) in data set [1], in [2], in [4], in data set [6], in [8] and in data set [9] was > 10 µM in each case. The IC50 (in data set [10]; in data set [11]; in data set [12]; in data set [13]; in data set [14]; at MAP kinase p38) was > 10 µM throughout. Besides, the IC50 in [16] is > 10 µM.

As a reminder, the IC50 is the concentration that gives 50% inhibition. Lower therefore signals inhibition by little substance. Usually bioavailability stands for the share of a dose that reaches the circulation, judged against a reference dose that is usually intravenous. Higher therefore signals much systemic uptake. As a reminder, the pKa is the negative logarithm of the acid dissociation constant. A higher pKa goes with a group that holds its proton tightly. Usually clearance stands for the rate of elimination divided by the concentration. Higher therefore signals a high capacity for elimination.

Values taken from ChEMBL document CHEMBL1147701, “Novel 4-anilinoquinazolines with C-6 carbon-linked side chains: synthesis and structure-activity relationship of a series of potent, orally active, EGF receptor tyrosine kinase inhibitors” (Bioorg Med Chem Lett, 2006).
